The values that follow come from article PMC9501377, “New Diarylamine KV10.1 Inhibitors and Their Anticancer Potential” (Pharmaceutics, 2022).

The test system of test [1] is tumour spheroids of Colo357 cells. Also on record: method as in PMID 33808994. The settings on record: cited from earlier work.
The target of test [2] is T1, KV10.1 (Eag1) (Homo sapiens, UniProt O95259).
T1 construct: expressed in transfected cells; host or cells: HEK-293 (stably transfected)
T1 sequence (O95259 1-962 isoform O95259-2): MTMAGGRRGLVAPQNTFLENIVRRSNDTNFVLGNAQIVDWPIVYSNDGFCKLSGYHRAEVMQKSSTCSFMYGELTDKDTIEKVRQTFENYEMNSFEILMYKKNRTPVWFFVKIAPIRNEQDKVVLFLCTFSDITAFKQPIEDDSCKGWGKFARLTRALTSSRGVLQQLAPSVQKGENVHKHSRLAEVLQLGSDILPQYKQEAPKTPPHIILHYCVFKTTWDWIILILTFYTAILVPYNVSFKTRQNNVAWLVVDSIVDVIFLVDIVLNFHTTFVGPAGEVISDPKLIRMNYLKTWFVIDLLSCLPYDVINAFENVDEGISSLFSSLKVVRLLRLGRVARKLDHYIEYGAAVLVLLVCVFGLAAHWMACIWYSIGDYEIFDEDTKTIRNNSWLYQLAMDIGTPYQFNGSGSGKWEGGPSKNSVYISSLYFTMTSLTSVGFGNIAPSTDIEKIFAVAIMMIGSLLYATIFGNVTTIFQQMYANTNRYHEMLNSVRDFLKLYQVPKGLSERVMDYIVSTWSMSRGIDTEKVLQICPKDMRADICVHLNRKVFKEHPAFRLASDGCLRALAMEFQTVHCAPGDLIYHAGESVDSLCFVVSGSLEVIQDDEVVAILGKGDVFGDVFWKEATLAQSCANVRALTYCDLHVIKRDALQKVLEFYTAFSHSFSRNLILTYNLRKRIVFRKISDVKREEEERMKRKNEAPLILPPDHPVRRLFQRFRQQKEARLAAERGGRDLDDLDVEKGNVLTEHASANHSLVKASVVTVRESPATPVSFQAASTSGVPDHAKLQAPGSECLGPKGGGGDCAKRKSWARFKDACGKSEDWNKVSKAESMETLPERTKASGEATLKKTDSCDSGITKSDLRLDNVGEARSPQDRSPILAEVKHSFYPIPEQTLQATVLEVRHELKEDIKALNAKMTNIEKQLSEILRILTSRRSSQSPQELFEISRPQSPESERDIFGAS
The test can be described thus: Whole-cell patch-clamp on stably transfected HEK-293 cells expressing KV10.1. The class given is cell-based. To be noted: HEK293; 50 μM, HEK-293 cells, patch-clamp, mean ± SEM. Here is the method: For whole-cell patch-clamp measurements, stably transfected HEK-293 cells expressing KV10.1 [26, 27, 28] were grown in DMEM with 10% FCS and 300 µg/mL Zeocin on glass coverslips coated with fibronectin. All experiments were conducted at room temperature under perfusion by gravity with extracellular solution (160 mM NaCl, 2.5 mM KCl, 2 mM CaCl2, 1 mM MgCl2, 10 mM Hepes pH 7.4 with NaOH, 8 mM glucose). Pipettes were made from #1 glass capillaries (WPI) and had 1–3 MΩ resistance. The intracellular solution contained 100 mM KCl, 45 mM N-methyl-D-glucamine, 10 mM 1,2-bis(o-aminophenoxy)ethane-N,N,N′,N′-tetraacetic acid (BAPTA), 10 mM Hepes pH 7.35. Stimulation was applied and data were acquired with an EPC10 Plus amplifier (HEKA Elektronik) controlled with Patch Master software. Compounds were applied with an 8-channel fast solution exchanger (ALA). Compounds were prepared to a stock concentration of 10 mM in DMSO. The control solution contained 0.5% DMSO. Stimuli consisted of 500 ms depolarizations to +40 mV.
All electrophysiological data are presented as means ± SEM of n ≥ 3 independent experiments unless otherwise indicated. Oocyte data were analysed using pClamp Clampfit 10.4 (Molecular Devices, Downingtown, PA, USA) and OriginPro 9 (Originlab, Northampton, MA, USA) or GraphPad Prism 8 software (GraphPad Software, Inc., San Diego, CA, USA). Patch-clamp data analysis was performed using FitMaster (HEKA Electronics), IgorPro (Wavemetrics, Inc., Lake Oswego, OR, USA) and GraphPad Prism 9 (GraphPad Software, Inc., San Diego, CA, USA). The Dunnett test and one-way ANOVA were performed to calculate the significance of the induced inhibition compared to the control (p < 0.05).
A general note: In patch-clamp work, channel activity is measured electrically.

Molecules are shown by their SMILES.

Regarding `CN(C)CCCOc1ccc(Nc2ccc(C(F)(F)F)cc2[N+](=O)[O-])cc1` [Compound 2], the “apoptosis in tumour spheroids of Colo357 cells” value in test [1] is given as “induced significant apoptosis”.
On to `O=[N+]([O-])c1cc(C(F)(F)F)ccc1Nc1ccc(OCC(O)CN2CCC(O)(COc3ccc(Cl)c(Cl)c3)CC2)cc1` (stereo not shown) [Compound 16a, 4-((3,4-Dichlorophenoxy)methyl)-1-(2-hydroxy-3-(4-((2-nitro-4-(trifluoromethyl)phenyl)amino)phenoxy)propyl)piperidin-4-ol], for which 50 µM produced 44.6 ± 8.6% inhibition in test [2].
On the same count and under the same terms, next, `COc1ccc(OCC2(O)CCN(CC(O)COc3ccc(Nc4ccc(C(F)(F)F)cc4[N+](=O)[O-])cc3)CC2)cc1` (stereo not shown) [Compound 16b, 1-(2-Hydroxy-3-(4-((2-nitro-4-(trifluoromethyl)phenyl)amino)phenoxy)propyl)-4-((4-methoxyphenoxy)methyl)piperidin-4-ol]: 60.7 ± 9.6%.
On the same count and under the same terms, next, `O=C(NC1CCN(CC(O)COc2ccc(Nc3ccc(C(F)(F)F)cc3[N+](=O)[O-])cc2)CC1)c1ccc(Cl)c(Cl)c1` (stereo not shown) [Compound 16c, 3,4-Dichloro-N-(1-(2-hydroxy-3-(4-((2-nitro-4-(trifluoromethyl)phenyl)amino)phenoxy)propyl)piperidin-4-yl)benzamide]: 26.8 ± 10.1%.

The inhibition is the percentage by which the read-out fell short of the control. A high value points to a strong effect.
